Reference: patent US8354419B2, “Benzimidazole analogues for the treatment or prevention of flavivirus infections” (Vertex Pharmaceuticals Incorporated, priority 2009, dated 2013)
Where two headings read alike, the source gives them in different places.

System: HCV (Ib) RNA replication
Assay: Cell-based luciferase reporter HCV (1b) RNA replication assay (replicon cell lines Huh-7 5.2 and ET)
Parameters: species or system Hepatitis C virus
Details: HCV 1b genotype replicon, luciferase readout, 4 days incubation, read-out: EC50_1b
In short: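 Huh-7-derived 5.2 or ET replicon cells carrying a firefly luciferase reporter were seeded at ~3000 cells/well in medium without G418 or phenol red. Compound was added after 3-4 h, followed by 4 days at 37 °C. Luciferase readout was used, with IC50 fitted by nonlinear regression from eleven concentrations in duplicate.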

SMILES | EC50 (Hepatitis C virus, Huh-7, 96 h) [nM] | EC50 [nM]
Cc1nc(C)c(C(=O)N2CCC[C@H]2c2nc3cc(C#Cc4ccc5nc([C@@H]6CCCN6C(=O)c6sc(C)nc6C)[nH]c5c4)ccc3[nH]2)s1 [Compound 152] | 5 to 5000 | 
CC(C)(C)OC(=O)NC(CC1CCC1)C(=O)N1CCC[C@H]1c1nc2cc(C#Cc3ccc4[nH]c([C@@H]5CCCN5C(=O)[C@H](CC5CCC5)NC(=O)OC(C)(C)C)nc4c3)ccc2[nH]1 (some centres unmarked) [Compound 121] | 5 to 5000 | 
COC(=O)N[C@@H](C(=O)N1CCC[C@H]1c1nc2cc(-c3ccc(-c4ccc5[nH]c([C@@H]6CCCN6C(=O)[C@H](NC(=O)OC)C(C)C)nc5c4)cc3)ccc2[nH]1)C(C)C [Compound 171] | 5 to 5000 | 
COC(=O)N[C@H](C(=O)N1CCC[C@H]1c1nc2cc(-c3ccc(-c4ccc5nc([C@@H]6CCCN6C(=O)[C@@H](NC(=O)OC)C(C)C)[nH]c5c4)cc3C(F)(F)F)ccc2[nH]1)C(C)C [Compound 177] | ≤ 5 | 
CC(C)(C)OC(=O)N1CCC[C@H]1c1nc2cc(N3CCCN(c4ccc5nc([C@@H]6CCCN6C(=O)OC(C)(C)C)[nH]c5c4)CC3)ccc2[nH]1 [Compound 273] | > 5000 | 
Cc1cc(-c2ccc3[nH]c([C@@H]4CCCN4C(=O)[C@@H](NC(=O)O[C@H]4CCOC4)C(C)C)nc3c2)sc1-c1ccc2[nH]c([C@@H]3CCCN3C(=O)[C@@H](NC(=O)O[C@H]3CCOC3)C(C)C)nc2c1 [Compound 156] | 5 to 5000 | 
COC(=O)N[C@H](C(=O)N1[C@H](c2nc3cc(-c4ccc(-c5ccc6nc([C@@H]7CCC(C)(C)N7C(=O)[C@@H](NC(=O)OC)C(C)C)[nH]c6c5)cc4)ccc3[nH]2)CCC1(C)C)C(C)C [Compound 311] | ≤ 5 | 
COC(=O)N[C@H](C(=O)N1CCC[C@H]1c1nc2cc(-c3nc(C)c(-c4ccc5[nH]c([C@@H]6CCCN6C(=O)[C@@H](NC(=O)OC)C(C)C)nc5c4)s3)ccc2[nH]1)C(C)C [Compound 214] | ≤ 5 | 
COC(=O)N[C@H](C(=O)N1C[C@@H](C)C[C@H]1c1nc2cc(-c3cnc(-c4ccc5[nH]c([C@@H]6C[C@H](C)CN6C(=O)[C@@H](NC(=O)OC)C(C)C)nc5c4)cn3)ccc2[nH]1)C(C)C [Compound 307] | ≤ 5 | 
CC(C)[C@H](O)C(=O)N1CCC[C@H]1c1nc2cc(-c3ccc(-c4ccc5nc([C@@H]6CCCN6C(=O)[C@@H](O)C(C)C)[nH]c5c4)c4c3OCO4)ccc2[nH]1 [Compound 209] | 5 to 5000 | 
COC(=O)N[C@H](C(=O)N1C[C@@H](C)C[C@H]1c1nc2cc(-c3ccc(-c4ccc5[nH]c([C@@H]6C[C@H](C)CN6C(=O)[C@@H](NC(=O)OC)C(C)C)nc5c4)c(C)c3)ccc2[nH]1)C(C)C [Compound 237] | ≤ 5 | 
COC(=O)N[C@H](C(=O)N1CCC[C@H]1c1nc2cc(-c3ccc(-c4ccc5c(c4)nc([C@@H]4CCCN4C(=O)[C@@H](NC(=O)OC)C(C)C)n5C)cc3)ccc2n1C)C(C)C [Compound 231] | > 5000 | 
COCc1cc(-c2ccc3[nH]c([C@@H]4CCCN4C(=O)[C@@H](NC(=O)OC)C(C)C)nc3c2)c(COC)cc1-c1ccc2[nH]c([C@@H]3CCCN3C(=O)[C@@H](NC(=O)OC)C(C)C)nc2c1 [Compound 218] | ≤ 5 | 
COC(=O)N[C@H](C(=O)N1C[C@@H](C)C[C@H]1c1nc2cc(-c3cc(F)c(-c4ccc5[nH]c([C@@H]6C[C@H](C)CN6C(=O)[C@H](C(C)C)N(C)C(=O)OC)nc5c4)cc3F)ccc2[nH]1)C(C)C [Compound 281] | ≤ 5 | 
COC(=O)N[C@@H](C)C(=O)N1CCC[C@H]1c1nc2cc(C#Cc3ccc4[nH]c([C@@H]5CCCN5C(=O)[C@@H](NC(=O)OC)C(C)(C)C)nc4c3)ccc2[nH]1 [Compound 54] | ≤ 5 | 
CC(=O)N[C@@H](C(=O)N1CCC[C@@H]1c1nc2cc(C#Cc3ccc4[nH]c([C@H]5CCCN5C(=O)[C@H](NC(C)=O)C(C)C)nc4c3)ccc2[nH]1)C(C)C [Compound 98] | 5 to 5000 | 
CC[C@@H]1CC[C@@H](c2nc3cc(-c4ccc(-c5ccc6nc([C@@H]7CC[C@@H](CC)N7C(=O)[C@@H](NC(=O)OC)C(C)C)[nH]c6c5)cc4)ccc3[nH]2)N1C(=O)[C@@H](NC(=O)OC)C(C)C [Compound 24, ((S)-1-{(2R,5S)-2-Ethyl-5-[5-(4-{2-[(2S,5R)-5-ethyl-1-((S)-2-methoxycarbonylamino-3-methyl-butyryl)-pyrrolidin-2-yl]-1H-benzoimidazol-5-yl}-phenyl)-1H-benzoimidazol-2-yl]-pyrrolidine-1-carbonyl}-2-methyl-propyl)-carbamic acid methyl ester] | ≤ 5 | 
CC(C)[C@H](NC(=O)NC1CCCC1)C(=O)N1CCCC1c1nc2cc(C#Cc3ccc4[nH]c([C@H]5CCCN5C(=O)[C@@H](NC(=O)NC5CCCC5)C(C)C)nc4c3)ccc2[nH]1 (some centres unmarked) [Compound 70] | 5 to 5000 | 
COC(=O)N[C@H](C(=O)N1CCC[C@H]1c1nc2ccc(-c3coc(-c4ccc5nc([C@@H]6CCCN6C(=O)[C@@H](NC(=O)OC)C(C)C)[nH]c5c4)n3)cc2[nH]1)C(C)C [Compound 236] | ≤ 5 | 

SMILES | EC50 (Hepatitis C virus, Huh-7, 96 h) [nM] | EC50 [nM]
COC(=O)N(C)[C@H](C(=O)N1C[C@@H](C)C[C@H]1c1nc2cc(-c3ccc(-c4ccc5[nH]c([C@@H]6C[C@H](C)CN6C(=O)[C@H](C(C)C)N(C)C(=O)OC)nc5c4)c4nsnc34)ccc2[nH]1)C(C)C [Compound 299] | ≤ 5 | 
COC(=O)N[C@H](C(=O)N1CCC[C@H]1c1nc2cc(C#Cc3ccc4[nH]c([C@@H]5CCCN5C(=O)[C@H]5CCCO5)nc4c3)ccc2[nH]1)C(C)C [Compound 38, {(S)-2-Methyl-1-[(S)-2-(5-{2-[(S)-1-((R)-tetrahydro-furan-2-carbonyl)-pyrrolidin-2-yl]-1H-benzoimidazol-5-ylethynyl}-1H-benzoimidazol-2-yl)-pyrrolidine-1-carbonyl]-propyl}-carbamic acid methyl ester] | ≤ 5 | 
O=C([C@H]1CCCO1)N1CCC[C@H]1c1nc2cc(C#Cc3ccc4nc([C@@H]5CCCN5C(=O)[C@H]5CCCO5)[nH]c4c3)ccc2[nH]1 [Compound 32, [(S)-5-(5-{2-[(S)-1-((R)-tetrahydro-furan-2-carbonyl)-pyrrolidin-2-yl]-1H-benzoimidazol-5-ylethynyl}-1H-benzoimidazol-2-yl)-pyrrolidin-1-yl]-(R)-tetrahydro-furan-2-yl-methanone] | 5 to 5000 | 
O=C(N1CCC[C@H]1c1nc2cc(C#Cc3ccc4[nH]c([C@@H]5CCCN5C(=O)C5(c6ccccc6)CC5)nc4c3)ccc2[nH]1)C1(c2ccccc2)CC1 [Compound 61] | ≤ 5 | 
COC(=O)N[C@H](C(=O)N1C[C@@H](C)C[C@H]1c1nc2cc(-c3ccc(-c4ccc5nc([C@@H]6CCCN6C(=O)[C@@H](NC(=O)OC)C(C)C)n(C)c5c4)cc3)ccc2[nH]1)C(C)C [Compound 271] | ≤ 5 | 
COC(=O)N[C@H](C(=O)N1[C@@H](C)CC[C@H]1c1nc2cc(C#CC#Cc3ccc4[nH]c([C@@H]5CC[C@H](C)N5C(=O)[C@@H](NC(=O)OC)C(C)C)nc4c3)ccc2[nH]1)C(C)C [Compound 324] | ≤ 5 | 
COC(=O)N[C@H](C(=O)N1CC2CC2C1c1nc2cc(-c3ccc(-c4ccc5[nH]c(C6C7CC7CN6C(=O)[C@@H](NC(=O)OC)C(C)C)nc5c4)cc3)ccc2[nH]1)C(C)C (some centres unmarked) [Compound 243] | ≤ 5 | 
O=C1O[C@@H]2C[C@@H]3C[C@@H]2[C@@H]1[C@H]3C(=O)N1CCC[C@H]1c1nc2cc(-c3ccc(-c4ccc5[nH]c([C@@H]6CCCN6C(=O)[C@H]6[C@H]7C[C@@H]8[C@H]6C(=O)O[C@@H]8C7)nc5c4)cc3)ccc2[nH]1 [Compound 230] | 5 to 5000 | 
COC(=O)N[C@H](C(=O)N1CCC[C@H]1c1nc2cc(-c3ccc(-c4ccc5nc([C@@H]6CCCN6C(=O)[C@@H](NC(=O)OC)[C@@H](C)OC)[nH]c5c4)c4ncoc34)ccc2[nH]1)[C@@H](C)OC [Compound 188] | ≤ 5 | 
COC(=O)N[C@H](C(=O)N1CC(C)(C)C[C@H]1c1nc2cc(-c3ccc(-c4ccc5[nH]c([C@@H]6CC(C)(C)CN6C(=O)[C@@H](NC(=O)OC)C(C)C)nc5c4)cc3)ccc2[nH]1)C(C)C [Compound 298] | ≤ 5 | 
COC(=O)N[C@H](C(=O)N1C(C)CC[C@H]1c1nc2cc(-c3ccc(-c4ccc5[nH]c([C@@H]6CCC(C)N6C(=O)[C@@H](NC(=O)OC)C(C)C)nc5c4)cc3)ccc2[nH]1)C(C)C (some centres unmarked) [Compound 269] | ≤ 5 | 
COC(=O)NC(C(=O)N1CCCC1c1nc2cc(-c3ccc(-c4ccc5nc(C6CCCN6C(=O)C(NC(=O)OC)C(C)(C)C)[nH]c5c4)cc3)ccc2[nH]1)C(C)(C)C (centres unmarked) [Compound 191] |  | ≤ 5
COC(=O)N[C@H](C(=O)N1C[C@H](C)C[C@H]1c1nc2cc(-c3ccc(-c4ccc5[nH]c([C@@H]6C[C@@H](C)CN6C(=O)[C@@H](NC(=O)OC)C(C)C)nc5c4)c(C)c3)ccc2[nH]1)C(C)C [Compound 261] | ≤ 5 | 
COC(=O)N(C)[C@H](C(=O)N1C[C@@H](C)C[C@H]1c1nc2cc(-c3ccc(-c4ccc5[nH]c([C@@H]6C[C@H](C)CN6C(=O)[C@H](C(C)C)N(C)C(=O)OC)nc5c4)c(F)c3)ccc2[nH]1)C(C)C [Compound 278] | ≤ 5 | 
COC(=O)N[C@H](C(=O)N1CCC[C@H]1c1nc2cc(C#Cc3ccc(-c4ccc5[nH]c([C@@H]6CCCN6C(=O)[C@@H](NC(=O)OC)C(C)C)nc5c4)cc3)ccc2[nH]1)C(C)C [Compound 147] | ≤ 5 | 
COC(=O)N[C@H](C(=O)N1C[C@@H](C)C[C@H]1c1nc2ccc(-c3ccc(-c4ccc5nc([C@@H]6C[C@H](C)CN6C(=O)[C@@H](NC(=O)OC)C(C)C)n(C)c5c4)cc3)cc2[nH]1)C(C)C [Compound 294] | ≤ 5 | 
COC(=O)N[C@@H](C)C(=O)N1CCC[C@H]1c1nc2cc(C#Cc3ccc4[nH]c([C@@H]5CCCN5)nc4c3)ccc2[nH]1 [Compound 57] | 5 to 5000 | 
COC(=O)N[C@H](C(=O)N1[C@H](c2nc3cc(-c4ccc(-c5ccc6[nH]c([C@@H]7C[C@@H]8C[C@@H]8N7C(=O)[C@@H](NC(=O)OC)C(C)C)nc6c5)cc4)ccc3[nH]2)C[C@@H]2C[C@@H]21)C(C)C [Compound 234] | ≤ 5 | 
COC(=O)N[C@H](C(=O)N1C(C)CC[C@H]1c1nc2cc(-c3ccc(-c4ccc5[nH]c([C@@H]6CCC(C)N6C(=O)[C@H](C(C)C)N(C)C(=O)OC)nc5c4)cc3)ccc2[nH]1)C(C)C (some centres unmarked) [Compound 301] | ≤ 5 | 
